The target of assay [1] is T1, hZnT1 (Homo sapiens, UniProt Q9Y6M5).
T1 construct: gene SLC30A1; homodimer (ECD 271-312, CTD 345-507 visible); tags and borders only in supplement; transport assay in HEK-293F cells
T1 sequence (Q9Y6M5 1-507): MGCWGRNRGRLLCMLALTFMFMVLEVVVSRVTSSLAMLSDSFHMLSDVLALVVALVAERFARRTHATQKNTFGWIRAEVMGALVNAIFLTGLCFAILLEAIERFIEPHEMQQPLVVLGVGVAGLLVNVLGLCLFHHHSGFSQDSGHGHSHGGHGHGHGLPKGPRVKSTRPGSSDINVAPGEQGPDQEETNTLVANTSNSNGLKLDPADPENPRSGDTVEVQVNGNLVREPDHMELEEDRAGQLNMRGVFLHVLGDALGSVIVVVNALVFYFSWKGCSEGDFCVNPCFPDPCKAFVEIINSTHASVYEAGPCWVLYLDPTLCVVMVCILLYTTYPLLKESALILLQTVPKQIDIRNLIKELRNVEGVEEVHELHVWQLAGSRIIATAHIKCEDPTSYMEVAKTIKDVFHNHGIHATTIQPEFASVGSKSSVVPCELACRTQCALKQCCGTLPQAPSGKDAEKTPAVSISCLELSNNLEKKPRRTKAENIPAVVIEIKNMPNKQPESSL
The assay can be described thus: FluoZin-3 fluorescence Zn2+ transport assay in HEK-293F cells. Type of assay: cell-based.

For assay [2], the target named is T2, hZnT1 (Homo sapiens, UniProt Q9Y6M5, I96A).
T2 construct: gene SLC30A1; homodimer (ECD 271-312, CTD 345-507 visible); tags and borders only in supplement; transport assay in HEK-293F cells
T2 sequence (Q9Y6M5 1-507 I96A): T1 sequence (Q9Y6M5 1-507) with I96A
The assay can be described thus: biolayer interferometry (BLI). As to conditions: read-out: binding affinity. On the technique in general: Biolayer interferometry detects binding as a change in optical thickness at a sensor tip.

The target in assay [3] is T3, hZnT1 (Homo sapiens, UniProt Q9Y6M5, G258A).
T3 construct: gene SLC30A1; homodimer (ECD 271-312, CTD 345-507 visible); tags and borders only in supplement; transport assay in HEK-293F cells
T3 sequence (Q9Y6M5 1-507 G258A): T1 sequence (Q9Y6M5 1-507) with G258A
The assay can be described thus: biolayer interferometry (BLI). Type of assay: binding.

The target of assay [4] is T1, hZnT1. The assay can be described thus: biolayer interferometry (BLI). As to conditions: read-out: binding affinity.

Where a chain is given by its changes, count along the chain named.

The IC50 is the concentration that gives 50% inhibition. `COC(=O)[C@]12CCC(C)(C)C[C@H]1[C@H]1C(=O)C=C3[C@@]4(C)C=C(C#N)C(=O)C(C)(C)[C@@H]4CC[C@@]3(C)[C@]1(C)CC2` [Bardoxolone methyl] returned an IC50 against hZnT1 [1] of 18 ± 0.92 µM. Moreover, the Kd on hZnT1 [2] is 58.4 µM; at hZnT1 [4] it was 2.72 µM. Also, the binding affinity result at hZnT1 [3] is reported as “the mutation of G258A directly led to the affinity to be completely undetectable”.

(Values after article PMC12698182, “Bardoxolone methyl blocks the efflux of Zn^2+ by targeting hZnT1 to inhibit the proliferation and metastasis of cervical cancer” (Protein & Cell, 2025).)
